Key:
[1] = system: Puccinia recondita f. Sp. Tritici; test: Fungicidal activity against Puccinia recondita f. sp. tritici / wheat / leaf disc preventative (brown rust); assay type: in vivo; settings: foliar, 200 ppm in the applied formulation, wheat leaf segments, preventative, compared to untreated control leaf disks, read-out: disease control
How it was run: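 Percent disease control relative to untreated check segments is scored once disease develops, 7 to 9 days after application. Wheat cv. Kanzler segments receive compound spray (200 ppm in formulation) one day before spore inoculation, then sit at 19° C. and 75% rh under 12 h light/12 h dark.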

[2] = system: Puccinia recondita f. Sp. Tritici; test: Fungicidal activity against Puccinia recondita f. sp. tritici / wheat / leaf disc curative (brown rust); assay type: in vivo; settings: foliar, 24 h, 200 ppm in the applied formulation, wheat leaf segments, curative (applied 1 day after inoculation), compared to untreated control leaf disks, read-out: disease control
How it was run: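 Inoculate cv. Kanzler segments on agar; hold dark, 19° C, 75% RH. Spray diluted formulated compound at day 1. Incubate 12 h light/12 h dark, same temperature and humidity; score % control vs untreated 6–8 days later.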

[3] = system: Glomerella lagenarium (Colletotrichum lagenarium); test: Fungicidal activity against Glomerella lagenarium (Colletotrichum lagenarium) liquid culture / cucumber / preventative (anthracnose); assay type: cell-based; settings: Colletotrichum orbiculare; 20 ppm in the applied formulation; liquid culture (PDB), growth inhibition measured photometrically after 3 to 4 days; compared to untreated control; read-out: disease control
How it was run: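 Percent activity against the untreated check was derived from photometric growth measurements made 2 to 7 days after conidia in potato dextrose broth were combined with compound at 20 ppm. Cultures were kept dark at 24 °C and 96% humidity.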

COCCC(=O)N(Cc1ccc(-c2noc(C(F)(F)F)n2)cc1)CC1CCCO1 (stereo not drawn) [Compound 1.422, 3-methoxy-N-(tetrahydrofuran-2-ylmethyl)-N-[[4-[5-(trifluoromethyl)-1,2,4-oxadiazol-3-yl]phenyl]methyl]-propanamide]
≥ 80%: pest or weed control at 200 ppm [1] | pest or weed control at 200 ppm [2] | inhibition of growth at 20 ppm [3]

CCCN(C)C(=O)N(C)Cc1ccc(-c2noc(C(F)(F)F)n2)cc1 [Compound 3.75, 1,3-dimethyl-1-propyl-3-[[4-[5-(trifluoromethyl)-1,2,4-oxadiazol-3-yl]phenyl]methyl]urea]
≥ 80%: pest or weed control at 200 ppm [1] | pest or weed control at 200 ppm [2] | inhibition of growth at 20 ppm [3]

COC(C)C(=O)N(C)Cc1ccc(-c2noc(C(F)(F)F)n2)cc1 (stereo not drawn) [Compound 1.530, 2-methoxy-N-methyl-N-[[4-[5-(trifluoromethyl)-1,2,4-oxadiazol-3-yl]phenyl]methyl]-propanamide]
≥ 80%: pest or weed control at 200 ppm [1] | pest or weed control at 200 ppm [2] | inhibition of growth at 20 ppm [3]

COCCC(=O)N(OC)C(C)c1ccc(-c2noc(C(F)(F)F)n2)cc1 (stereo not drawn) [Compound 1.260, N,3-dimethoxy-N-[1-[4-[5-(trifluoromethyl)-1,2,4-oxadiazol-3-yl]phenyl]ethyl]-propanamide]
≥ 80%: pest or weed control at 200 ppm [1] | pest or weed control at 200 ppm [2] | inhibition of growth at 20 ppm [3]

COCCCC(=O)N(Cc1ccc(-c2noc(C(F)(F)F)n2)cc1)Cc1ccco1 [Compound 1.467, N-(2-furylmethyl)-4-methoxy-N-[[4-[5-(trifluoromethyl)-1,2,4-oxadiazol-3-yl]phenyl]methyl]-butanamide]
≥ 80%: pest or weed control at 200 ppm [1] | pest or weed control at 200 ppm [2] | inhibition of growth at 20 ppm [3]

O=C(C1CSC1)N(Cc1ccc(-c2noc(C(F)(F)F)n2)cc1)CC1CCCO1 (stereo not drawn) [Compound 1.421, N-(tetrahydrofuran-2-ylmethyl)-N-[[4-[5-(trifluoromethyl)-1,2,4-oxadiazol-3-yl]phenyl]methyl]-thietane-3-carboxamide]
≥ 80%: pest or weed control at 200 ppm [1] | pest or weed control at 200 ppm [2] | inhibition of growth at 20 ppm [3]

C=CCN(Cc1ccc(-c2noc(C(F)(F)F)n2)cc1)C(=O)CC#N [Compound 1.490, N-allyl-2-cyano-N-[[4-[5-(trifluoromethyl)-1,2,4-oxadiazol-3-yl]phenyl]methyl]-acetamide]
≥ 80%: pest or weed control at 200 ppm [1] | pest or weed control at 200 ppm [2] | inhibition of growth at 20 ppm [3]

C#CC(=O)N(CCOC)Cc1ccc(-c2noc(C(F)(F)F)n2)cc1 [Compound 1.347, N-(2-methoxyethyl)-N-[[4-[5-(trifluoromethyl)-1,2,4-oxadiazol-3-yl]phenyl]methyl]prop-2-ynamide]
≥ 80%: pest or weed control at 200 ppm [1] | pest or weed control at 200 ppm [2] | inhibition of growth at 20 ppm [3]

COCCN(Cc1ccc(-c2noc(C(F)(F)F)n2)cc1)C(C)=O [Compound 1.364, N-(2-methoxyethyl)-N-[[4-[5-(trifluoromethyl)-1,2,4-oxadiazol-3-yl]phenyl]methyl]-acetamide]
≥ 80%: pest or weed control at 200 ppm [1] | pest or weed control at 200 ppm [2] | inhibition of growth at 20 ppm [3]

CCCC(C)(C)C(=O)N(Cc1ccc(-c2noc(C(F)(F)F)n2)cc1)OC [Compound 1.10, N-methoxy-2,2-dimethyl-N-[[4-[5-(trifluoromethyl)-1,2,4-oxadiazol-3-yl]phenyl]methyl]-pentanamide]
≥ 80%: pest or weed control at 200 ppm [1] | pest or weed control at 200 ppm [2] | inhibition of growth at 20 ppm [3]

From US11180462B2, “Microbiocidal oxadiazole derivatives” (SYNGENTA PARTICIPATIONS AG, priority 2015, dated 2021)
